Reference: patent publication US20050112615A1, “Genetic circuit inverting amplifier” (priority 2003, published 2005)

System: E.coli strain DH5αZ1 transformed with input pBT plasmid and amplifier plasmid pAMP-1
Assay: Output EGFP fluorescence of genetic circuit amplifier as a function of input IPTG concentration
Assay type: cell-based
Details: 3 hours growth, corrected for cell density and background fluorescence
Description: A second bacterial plasmid, pBT (Stratagene, CA), was selected to produce the input. It releases monomer into the cellular environment, making CI available for the engineered circuit to use. It is a simple plasmid that controls transcription of cI with the PlacUV promoter. […] The pBT vector has an origin of replication derived from p15A, making it compatible with the circuit plasmid which has a different ColE1 origin of replication. Together, the plasmids constitute a cis-trans network, since the product of one plasmid (pBT) affects the outcome of gene expression on the second plasmid (pAMP-1).
The input pBT plasmid and the amplifier plasmid pAMP-1 gene were transformed into chemically competent E.coli strain DH5αZ1. This strain was selected because it produces LacI in abundance so as to permit effective use of pBT. Transformed cells were grown overnight at 37° C. in LB broth. Chloramphenicol was added at a concentration of 50 μg/mL and ampicillin was added at a concentration of 100 μg/mL.
The overnight culture was diluted 1:50 into fresh LB medium containing IPTG at the following concentrations: 0-20-200-2000 μM. These cells were allowed to grow for another 3 hours. The cells were then spun down and re-suspended in PBS. Fluorescence was then measured on a BMG Optima microplate fluorometer equipped with filters for GFP. Absorbance at 600 nm was also measured. Fluorescence was the corrected for cell density and background fluorescence. The result, presented in Table 1, indicates an output that decreases with increasing input. Observed non-linearity is likely due to low gain of chosen gain element.

CC(C)S[C@@H]1O[C@H](CO)[C@H](O)[C@H](O)[C@H]1O [IPTG, isopropyl-β-D-thiogalactopyranoside]
EGFP output fluorescence (IPTG 20 uM): 66263 arbitrary units
EGFP output fluorescence (IPTG 200 uM): 58338 arbitrary units
EGFP output fluorescence (IPTG 2000 uM): 44137 arbitrary units
